How the values were obtained:
Assay in all cases: relative viability (nuclei count vs DMSO), 5 days (fraction); higher = more cells survive
Bemcentinib + Linsitinib = compound: Nc1nc(Nc2ccc3c(c2)CC[C@@H](N2CCCC2)CC3)nn1-c1cc2c(nn1)-c1ccccc1CCC2 [Bemcentinib] + C[C@]1(O)C[C@@H](c2nc(-c3ccc4ccc(-c5ccccc5)nc4c3)c3c(N)nccn32)C1 [Linsitinib] (partner 1 µM)
Summary of the method: (§1)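 Relative viability was taken as the ratio of nuclei in treated wells to nuclei in vehicle wells. Lung cancer cell lines in 1536-well plates received compounds by pin tool one day after seeding, either one drug alone or a fixed anchor-drug dose plus five library-drug doses (not always all listed) in √10 steps. Nuclei were counted on 4× images after 5 days of treatment, and values are medians of duplicate plates.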

[1] = compound: CC1=CC=C(C=C1)C(=O)CN2C3=C(CCCC3)SC2=N [Pifithrin_alpha] + Nc1ncn([C@H]2C[C@H](O)[C@@H](CO)O2)c(=O)n1 [Decitabine] (partner 2 µM)
Summary of the method: as §1

Bemcentinib + Crizotinib = compound: Nc1nc(Nc2ccc3c(c2)CC[C@@H](N2CCCC2)CC3)nn1-c1cc2c(nn1)-c1ccccc1CCC2 [Bemcentinib] + C[C@@H](Oc1cc(-c2cnn(C3CCNCC3)c2)cnc1N)c1c(Cl)ccc(F)c1Cl [Crizotinib] (partner 1 µM)
Summary of the method: as §1

Axitinib + Olaparib = compound: CNC(=O)c1ccccc1Sc1ccc2c(/C=C/c3ccccn3)n[nH]c2c1 [Axitinib] + O=C(c1cc(Cc2n[nH]c(=O)c3ccccc23)ccc1F)N1CCN(C(=O)C2CC2)CC1 [Olaparib] (partner 8 µM)
Summary of the method: as §1

Row | Cell Line | relative viability (Bemcentinib + Linsitinib; first compound 0.04 µM) | relative viability (Bemcentinib + Linsitinib; first compound 0.1265 µM) | relative viability (Bemcentinib + Linsitinib; first compound 0.4 µM) | relative viability (Bemcentinib + Linsitinib; first compound 1.265 µM) | relative viability (Bemcentinib + Linsitinib; first compound 4 µM) | relative viability ([1]; first compound 1 µM) | relative viability ([1]; first compound 3.162 µM) | relative viability ([1]; first compound 10 µM) | relative viability ([1]; first compound 31.62 µM) | relative viability ([1]; first compound 100 µM) | relative viability (Bemcentinib + Crizotinib; first compound 0.04 µM) | relative viability (Bemcentinib + Crizotinib; first compound 0.1265 µM) | relative viability (Bemcentinib + Crizotinib; first compound 0.4 µM) | relative viability (Bemcentinib + Crizotinib; first compound 1.265 µM) | relative viability (Bemcentinib + Crizotinib; first compound 4 µM) | relative viability (Axitinib + Olaparib; first compound 0.005 µM) | relative viability (Axitinib + Olaparib; first compound 0.01581 µM) | relative viability (Axitinib + Olaparib; first compound 0.05 µM) | relative viability (Axitinib + Olaparib; first compound 0.1581 µM) | relative viability (Axitinib + Olaparib; first compound 0.5 µM)
1 | HCC-44 | 0.702 | 0.74 | 0.736 | 0.714 | 0.771 | 0.859 | 0.919 | 0.812 | 0.779 | 0.857 | 0.832 | 0.806 | 0.864 | 0.813 | 0.852 | 0.955 | 0.961 | 0.963 | 0.947 | 1
2 | HCC-78 | 0.572 | 0.56 | 0.49 | 0.634 | 0.806 | – | 0.623 | 0.673 | 0.623 | 0.56 | 0.322 | 0.344 | 0.334 | 0.334 | 0.328 | 0.925 | 0.814 | 0.674 | 0.776 | 0.813
3 | HCC-366 | 0.612 | 0.921 | 1.14 | 0.604 | 0.881 | 0.308 | 0.326 | 0.403 | – | 0.297 | 0.524 | 0.902 | 0.583 | 0.629 | 0.383 | 0.362 | 0.33 | 0.422 | 0.304 | 0.37
4 | HCC-827 | 0.952 | 0.992 | 0.936 | 0.947 | 0.988 | 0.136 | 0.357 | 0.31 | 0.334 | 0.345 | 0.971 | 0.867 | 0.914 | 1 | 0.939 | 0.617 | 0.566 | 0.66 | 0.62 | 0.812
5 | HOP-62 | 1.12 | 0.986 | – | 1.08 | 0.99 | 0.233 | 0.167 | 0.232 | 0.218 | 0.263 | 1.01 | 1.08 | – | 0.734 | 1.03 | 0.392 | 0.443 | 0.321 | 0.569 | 0.682
6 | IA-LM | 0.661 | 0.962 | 0.654 | 0.697 | 0.713 | – | – | – | – | – | 0.777 | 0.654 | 0.947 | 0.752 | 0.842 | 1.07 | 0.855 | 0.821 | 0.808 | 0.832
7 | LC-2-ad | 0.831 | 0.851 | 0.835 | 0.888 | 0.894 | 0.786 | 0.73 | 0.811 | 0.683 | 0.675 | 0.467 | 0.482 | 0.416 | 0.411 | 0.452 | 0.735 | 0.693 | 0.738 | 0.708 | 0.76
8 | LCLC-97TM1 | 0.183 | 0.216 | – | 0.204 | 0.196 | – | 0.272 | 0.235 | – | 0.121 | 0.267 | 0.475 | – | 0.376 | 0.259 | 0.433 | 0.436 | 0.446 | 0.37 | 0.496
9 | LCLC-103H | 1.17 | 1.09 | 1.11 | 1.27 | 1.22 | 0.659 | 0.7 | 0.708 | 0.636 | 0.65 | 1.05 | 1.11 | 1.04 | 1.13 | 1.11 | 0.803 | 0.784 | 0.753 | 0.881 | 0.824
10 | NCI-H522 | – | – | – | – | – | 0.681 | 0.722 | 0.693 | 0.673 | 0.579 | – | – | – | – | – | 0.61 | 0.639 | 0.641 | 0.562 | 0.748
11 | NCI-H1299 | 1.01 | 1.04 | 0.985 | 1.07 | 1.09 | – | – | – | – | – | 0.963 | 0.967 | 1.02 | 0.937 | 0.942 | 0.983 | 0.944 | 0.976 | 0.983 | 0.975
12 | NCI-H1395 | 1.06 | 1.21 | 1.01 | 1.48 | 0.962 | – | 0.649 | 0.709 | – | 0.735 | – | – | – | – | – | 0.51 | 0.446 | 0.432 | 0.435 | 0.545
13 | NCI-H1563 | 1.24 | 1.15 | 1.21 | 1.15 | 1.19 | – | – | – | – | – | 0.79 | 0.759 | 0.81 | 0.849 | 0.89 | – | – | – | – | –
14 | NCI-H1648 | – | – | – | – | – | 0.478 | 0.597 | 0.464 | 0.406 | 0.496 | – | – | – | – | – | 0.616 | 0.975 | 0.554 | 0.979 | 0.958
15 | NCI-H1650 | – | – | – | – | – | 0.382 | 0.442 | 0.593 | 0.32 | 0.406 | 0.887 | 0.998 | 1.05 | 0.973 | 0.814 | 0.876 | 0.712 | 0.797 | 0.91 | 0.89
16 | NCI-H1703 | 0.675 | 0.776 | 0.798 | 0.638 | 0.746 | – | – | – | – | – | – | 0.687 | 0.723 | 0.717 | 0.627 | 0.392 | 0.225 | 0.243 | 0.216 | 0.201
17 | NCI-H1793 | 0.662 | 1.09 | 0.81 | 1.07 | 0.992 | 0.442 | 0.464 | 0.489 | 0.323 | 0.454 | – | – | – | – | – | 1 | 0.715 | 0.874 | 0.793 | 1.05
18 | NCI-H2170 | – | – | – | – | – | 0.48 | 0.453 | 0.476 | 0.427 | 0.453 | 1.36 | 1.36 | 1.21 | 1.38 | 1.31 | 0.693 | 0.616 | 0.569 | 0.595 | 0.671
19 | NCI-H2228 | – | 0.627 | 0.733 | 0.585 | 1.11 | – | – | – | – | – | – | 0.551 | 0.599 | 0.467 | 0.451 | 0.636 | 0.706 | 0.713 | 0.466 | 0.91
20 | NCI-H2342 | – | – | – | – | – | 0.685 | 0.779 | 0.744 | 0.64 | 0.678 | – | – | – | – | – | 0.51 | 0.464 | 0.421 | 0.528 | 0.44
21 | SW 900 | – | – | – | – | – | 0.395 | 0.381 | 0.423 | 0.389 | 0.447 | – | – | – | – | – | 1.02 | – | 1.07 | 0.892 | 0.927

From the supplement of paper PMC10307832
